In patent US20250215039A1, “NUCLEOSIDES FOR TREATING CANCER” (PRIMEFOUR THERAPEUTICS, INC., priority 2022, published 2025):
Read-outs that look alike come from different tables or passages of the source.

Columns and labels:
[1] = target: human cytidine deaminase (CDA) (Homo sapiens, UniProt P32320); test: Metabolism by human cytidine deaminase (CDA), substrate absorbance at 290 nm
cancer cell lines = test: Cancer cell proliferation activity (CellTiterGlo, 72 h); assay type: cell-based; settings: 72 h, 72 h, read-out: IC50 cell proliferation
Method in brief: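 Readout is CellTiterGlo luminescence after 72 h compound exposure (0.1% DMSO final), started one day post-seeding, at 37 °C.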

Chain of human cytidine deaminase (CDA) (P32320 whole entry): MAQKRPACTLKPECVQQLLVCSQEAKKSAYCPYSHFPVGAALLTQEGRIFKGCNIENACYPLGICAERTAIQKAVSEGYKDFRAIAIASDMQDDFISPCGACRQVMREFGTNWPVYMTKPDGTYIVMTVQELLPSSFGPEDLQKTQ

**Q.** What does the source list for `C[C@]1(CO)O[C@@H](n2ccc(N)nc2=O)C(F)(F)[C@@H]1O` [Cpd. No. 190, 4-amino-1-((2R,4R,5R)-3,3-difluoro-4-hydroxy-5-(hydroxymethyl)-5-methyltetrahydrofuran-2-yl)pyrimidin-2(1H)-one]?
**A.** metabolism (deamination) by human CDA (line graph) ([1]; 12 nM CDA, 50 and 200 uM substrate, 37° C., pH 7.5, figure legends FIG. 4-9): not metabolized; substrate conversion by CDA (Inactive) ([1]; rate of substrate conversion at 200 μM, could not be fitted): Inactive; IC50 (cancer cell lines; 5637 (bladder)): 3.87 µM; IC50 (cancer cell lines; CLS439 (bladder)): > 50 µM; IC50 (cancer cell lines; HS729 (muscle)): 4.74 µM; IC50 (cancer cell lines; J82 (bladder)): > 50 µM; IC50 (cancer cell lines; JAR (placenta)): > 50 µM; IC50 (cancer cell lines; MT3 (breast)): 1.08 µM; IC50 (cancer cell lines; PANCI (pancreas)): > 50 µM; IC50 (cancer cell lines; PC3 (prostate)): 1.46 µM; IC50 (cancer cell lines; RD (muscle)): > 50 µM; IC50 (cancer cell lines; T24 (bladder)): 3.21 µM; IC50 (cancer cell lines; Homo sapiens, 22Rv1, 72 h, 22RV1 (prostate)): > 50 µM; IC50 (cancer cell lines; Homo sapiens, 786-0, 72 h, 786O (kidney)): > 50 µM; IC50 (cancer cell lines; Homo sapiens, A204, 72 h, A204 (muscle)): 0.17 µM; IC50 (cancer cell lines; Homo sapiens, A549, 72 h, A549 (lung)): 2.9 µM; IC50 (cancer cell lines; Homo sapiens, A673, 72 h, A673 (bone)): > 50 µM; IC50 (cancer cell lines; Homo sapiens, A2780, 72 h, A2780 (ovary)): 5.39 µM; IC50 (cancer cell lines; Homo sapiens, A-375, 72 h, A375 (skin)): > 50 µM; IC50 (cancer cell lines; Homo sapiens, A-431, 72 h, A431 (skin)): 3.8 µM; IC50 (cancer cell lines; Homo sapiens, ACHN, ACHN (kidney)): 2.85 µM; IC50 (cancer cell lines; Homo sapiens, ASPC1, 72 h, ASPC1 (pancreas)): > 50 µM; IC50 (cancer cell lines; Homo sapiens, BT-20, 72 h, BT20 (breast)): > 50 µM; IC50 (cancer cell lines; Homo sapiens, BXPC-3, 72 h, BXPC3 (pancreas)): > 50 µM; IC50 (cancer cell lines; Homo sapiens, C-33-A, C33A (endometrial)): 2.08 µM; IC50 (cancer cell lines; Homo sapiens, CAKI-1, 72 h, CAKI1 (kidney)): 1.07 µM; IC50 (cancer cell lines; Homo sapiens, COLO 205, 72 h, COLO205 (colon)): 3.03 µM; IC50 (cancer cell lines; Homo sapiens, COLO-678, 72 h, COLO678 (colon)): > 50 µM; IC50 (cancer cell lines; Homo sapiens, Ca-Ski, CASKI (endometrial)): > 50 µM; IC50 (cancer cell lines; Homo sapiens, Caco-2, 72 h, CACO2 (colon)): > 50 µM; IC50 (cancer cell lines; Homo sapiens, Calu-6, 72 h, CALU6 (lung)): 5.25 µM; IC50 (cancer cell lines; Homo sapiens, DLD-1, 72 h, DLD1 (colon)): > 50 µM; IC50 (cancer cell lines; Homo sapiens, DU-145, 72 h, DU145 (prostate)): 3.18 µM; IC50 (cancer cell lines; Homo sapiens, EFO-21, 72 h, EFO21 (ovary)): > 50 µM; IC50 (cancer cell lines; Homo sapiens, EJ-28, 72 h, EJ28 (bladder)): > 50 µM; IC50 (cancer cell lines; Homo sapiens, Granta-519, 72 h, GRANTA-519 (hematological)): 1.24 µM; IC50 (cancer cell lines; Homo sapiens, HCT-15, 72 h, HCT15 (colon)): 3.1 µM; IC50 (cancer cell lines; Homo sapiens, HCT-116, 72 h, HCT116 (colon)): 3.28 µM; IC50 (cancer cell lines; Homo sapiens, HEK293, 72 h, HEK293 (kidney)): > 50 µM; IC50 (cancer cell lines; Homo sapiens, HL-60, 72 h, HL-60 (hematological)): > 50 µM; IC50 (cancer cell lines; Homo sapiens, HT-29, 72 h, HT29 (colon)): > 50 µM; IC50 (cancer cell lines; Homo sapiens, HT-1080, 72 h, HT1080 (connective tissue)): 4.73 µM; IC50 (cancer cell lines; Homo sapiens, HeLa, HELA (endometrial)): > 50 µM; IC50 (cancer cell lines; Homo sapiens, HepG2, 72 h, HEPG2 (liver)): > 50 µM; IC50 (cancer cell lines; Homo sapiens, Hs-578T, HS578T (breast)): > 50 µM; IC50 (cancer cell lines; Homo sapiens, IGROV-1, 72 h, IGROV1 (ovary)): 4.31 µM; IC50 (cancer cell lines; Homo sapiens, IMR-90, 72 h, IMR90 (lung)): > 50 µM; IC50 (cancer cell lines; Homo sapiens, JEG-3, 72 h, JEG3 (placenta)): > 50 µM; IC50 (cancer cell lines; Homo sapiens, JIMT-1, 72 h, JIMT1 (breast)): 2.23 µM; IC50 (cancer cell lines; Homo sapiens, K562, 72 h, K-562 (hematological)): > 50 µM; IC50 (cancer cell lines; Homo sapiens, Kasumi 1, 72 h, KASUMI-1 (hematological)): 2.23 µM; IC50 (cancer cell lines; Homo sapiens, L-363, 72 h, L-363 (hematological)): > 50 µM; IC50 (cancer cell lines; Homo sapiens, LoVo, LOVO (colon)): 2.74 µM; IC50 (cancer cell lines; Homo sapiens, MCF7, 72 h, MCF7 (breast)): > 50 µM; IC50 (cancer cell lines; Homo sapiens, MDA-MB-231, 72 h, MDAMB231 (breast)): 2.23 µM; IC50 (cancer cell lines; Homo sapiens, MDA-MB-435, 72 h, MDAMB435 (skin)): 4.7 µM; IC50 (cancer cell lines; Homo sapiens, MDA-MB-436, 72 h, MDAMB436 (breast)): > 50 µM; IC50 (cancer cell lines; Homo sapiens, MDA-MB-468, 72 h, MDAMB468 (breast)): > 50 µM; IC50 (cancer cell lines; Homo sapiens, MG-63, 72 h, MG63 (bone)): > 50 µM; IC50 (cancer cell lines; Homo sapiens, MHH-ES-1, 72 h, MHHES1 (bone)): > 50 µM; IC50 (cancer cell lines; Homo sapiens, MIA PaCa-2, 72 h, MIAPACA2 (pancreas)): > 50 µM; IC50 (cancer cell lines; Homo sapiens, MINO, MINO (hematological)): 0.43 µM; IC50 (cancer cell lines; Homo sapiens, MV4-11, 72 h, MV4-11 (hematological)): 3.8 µM; IC50 (cancer cell lines; Homo sapiens, NCI-H23, 72 h, NCI-H23 (lung)): > 50 µM; IC50 (cancer cell lines; Homo sapiens, NCI-H82, 72 h, NCIH82 (lung)): > 50 µM; IC50 (cancer cell lines; Homo sapiens, NCI-H292, 72 h, NCIH292 (lung)): > 50 µM; IC50 (cancer cell lines; Homo sapiens, NCI-H460, 72 h, NCIH460 (lung)): 5.68 µM; IC50 (cancer cell lines; Homo sapiens, OVCAR-3, 72 h, OVCAR3 (ovary)): 2.57 µM; IC50 (cancer cell lines; Homo sapiens, OVCAR-4, 72 h, OVCAR4 (ovary)): > 50 µM; IC50 (cancer cell lines; Homo sapiens, PLC-PRF-5, 72 h, PLCPRF5 (liver)): > 50 µM; IC50 (cancer cell lines; Homo sapiens, Panc1005, 72 h, PANC1005 (pancreas)): > 50 µM; IC50 (cancer cell lines; Homo sapiens, Ramos, RAMOS (hematological)): 2.69 µM; IC50 (cancer cell lines; Homo sapiens, SAOS-2, 72 h, SAOS2 (bone)): 1.49 µM; IC50 (cancer cell lines; Homo sapiens, SF-268, 72 h, SF268 (brain)): 3.8 µM; IC50 (cancer cell lines; Homo sapiens, SF-295, 72 h, SF295 (brain)): > 50 µM; IC50 (cancer cell lines; Homo sapiens, SK-BR-3, 72 h, SKBR3 (breast)): 4.56 µM; IC50 (cancer cell lines; Homo sapiens, SK-HEP1, 72 h, SKHEP1 (liver)): 2.54 µM; IC50 (cancer cell lines; Homo sapiens, SK-LMS-1, 72 h, SKLMS1 (uterus)): > 50 µM; IC50 (cancer cell lines; Homo sapiens, SK-MEL-5, 72 h, SKMEL5 (skin; SKMELS [sic] in Table 9E)): > 50 µM; IC50 (cancer cell lines; Homo sapiens, SK-MEL-28, 72 h, SKMEL28 (skin)): > 50 µM; IC50 (cancer cell lines; Homo sapiens, SK-N-AS, SKNAS (brain)): > 50 µM; IC50 (cancer cell lines; Homo sapiens, SK-N-SH, SKNSH (brain)): > 50 µM; IC50 (cancer cell lines; Homo sapiens, SK-OV-3, 72 h, SKOV3 (ovary)): > 50 µM; IC50 (cancer cell lines; Homo sapiens, SNB-75, 72 h, SNB75 (brain)): > 50 µM; IC50 (cancer cell lines; Homo sapiens, SU-DHL10, 72 h, SU-DHL-10 (hematological)): 2.73 µM; IC50 (cancer cell lines; Homo sapiens, SU-DHL-6, 72 h, SU-DHL-6 (hematological)): 2.87 µM; IC50 (cancer cell lines; Homo sapiens, SW-620, 72 h, SW620 (colon)): 4.6 µM; IC50 (cancer cell lines; Homo sapiens, TE-671, 72 h, TE671 (muscle)): > 50 µM; IC50 (cancer cell lines; Homo sapiens, THP-1, 72 h, THP-1 (hematological)): 3.44 µM; IC50 (cancer cell lines; Homo sapiens, U2OS, U20S (bone; U2OS in Table 9E)): > 50 µM; IC50 (cancer cell lines; Homo sapiens, U-87 MG, U87MG (brain)): 2.91 µM; IC50 (cancer cell lines; Homo sapiens, UMUC3, 72 h, UMUC3 (bladder)): > 50 µM; IC50 (cancer cell lines; Homo sapiens, UO-31, 72 h, UO31 (kidney)): 8.13 µM; IC50 (cancer cell lines; Homo sapiens, WSU-NHL, WSU-NHL (hematological)): 1.67 µM; IC50 (cancer cell lines; NCI-H358M, NCIH358M (lung)): 1.04 µM; IC50 (cancer cell lines; PBMC, PBMC (hematological)): 2.61 µM; IC50 (cancer cell lines; RD-ES, RDES (bone)): > 50 µM
